One series addresses F508del-CFTR (Homo sapiens (Human), UniProt P13569, DEL508-508). In words: Membrane potential optical (fluorescent voltage sensing dye, FLIPR III) HTS assay for F508del-CFTR modulators. It is filed as cell-based. The source says:
Membrane Potential Optical Methods for Assaying Properties of F508del-CFTR Modulators
The assay utilizes fluorescent voltage sensing dyes to measure changes in membrane potential using a fluorescent plate reader (e.g., FLIPR III, Molecular Devices, Inc.) as a readout for increase in functional F508del in NIH 3T3 cells.
5A-A1. Identification of F508Del-CFTR Modulators
To identify modulators of F508del, a fluorescence based HTS assay format was developed. This HTS assay utilizes fluorescent voltage sensing dyes to measure changes in membrane potential on the FLIPR III as a measurement for increase in gating (conductance) of F508del NIH 3T3 cells.
(in mM) NaCl 160, KCl 4.5, CaCl2 2, MgCl2 1, HEPES 10, pH 7.4 with NaOH, Glucose 10.
Chloride salts in Bath Solution #1 (above) are substituted with gluconate salts.
NIH3T3 mouse fibroblasts stably expressing F508del are used for optical measurements of membrane potential. The cells are maintained at 37° C. in 5% CO2 and 90% humidity in Dulbecco's modified Eagle's medium supplemented with 2 mM glutamine, 10% fetal bovine serum, 1×NEAA, β-ME, 1×pen/strep, and 25 mM HEPES in 175 cm^2 culture flasks. For all optical assays, the cells were seeded at 12,000 cells/well in 384-well matrigel-coated plates and cultured for 18-24 hrs at 37° C. for the potentiator assay. For the correction assays, the cells are cultured at 37° C. with and without compounds for 18-24 hours.

The target of another series is human PXR (Homo sapiens (Human), UniProt O75469). The series can be described thus: PXR assay (PXR mediated CYP3A4 induction, DPX-2 cell line). Format: cell-based. The conditions noted are these: DPX-2 cells, 48 hours, 0.1 to 60 μM. Here is the method: 5D. Experimental Protocol for PXR Assay
The propensity for PXR mediated CYP3A4 induction is assessed using the DPX-2 cell line in vitro. This cell line, which has been licensed from Puracyp Inc. was derived from HepG2 cells and has been stably transfected with genes encoding human PXR as well as a modified luciferase reporter linked to the CYP3A4 promoter region and related distal and proximal enhancers.
The assay is run in 384 well format and each test article is administered in 11 doses ranging from 0.1 to 60 μM. On day 1, DPX-2 cells which have previously been expanded in-house and cryopreserved are thawed and seeded in tissue culture plates. The following day, media is changed and cells are cultured in media containing test article, vehicle control or the positive control compound, the clinically validated CYP3A4 inducer rifampicin. Cells are cultured in the presence of test article for 48 hours and then cell viability is assessed using fluorescence based assay (Cell Titer-Fluor, Promega) with an EnVision Plate Reader (PerkinElmer). Subsequently, CYP3A4 transactivation, which is proportional to luciferase activity, is measured by reading luminescense using the Promega One-Glo reagent system using the same plate reader.
Data processing within the Genedata software package allows reporting of max fold induction compared to vehicle control, an EC50 value for CYP3A4 inducers and an 11 point-dose response curve.

A short description of another series: Rat IV and PO PK studies. The settings on record: male, Sprague-Dawley, plasma; for bioavailability / AUC: 3 mg/kg, oral; for bioavailability: read-out: Rat po % F; for clearance: intravenous, 3.0 mg/kg, read-out: Rat iv CL. It is filed as in vivo, male Sprague-Dawley rats. The method, then:
5C. Experimental Protocol for Rat IV and PO PK Studies
[…] […] Analyses of plasma and dose preparations were performed using LC/MS/MS.
Plasma concentration-time profiles of the tested compound in Sprague-Dawley rats at scheduled (nominal) sampling times were analyzed by noncompartmental pharmacokinetic methods using PK function within Watson LIMS software, Version 7.4.2 (Thermo Scientific Inc, Waltham, Mass.). AUC values were calculated using the linear trapezoidal rule.

The mark [1] stands for this setting: F508del NIH 3T3 cells, assay 5A-A1, read-out: CFTRdF508 EC50.
Setting [2] is: Table 9, read-out: CFTR dF508 EC50.

The record followed here is patent publication US11186566B2, “Modulator of cystic fibrosis transmembrane conductance regulator, pharmaceutical compositions, methods of treatment, and process for making the modulator” (Vertex Pharmaceuticals Incorporated, priority 2016, dated 2021).

pEC50: −log10 of the molar value. Read-outs that look alike come from different tables or passages of the source.

Chain of human PXR (O75469 whole entry): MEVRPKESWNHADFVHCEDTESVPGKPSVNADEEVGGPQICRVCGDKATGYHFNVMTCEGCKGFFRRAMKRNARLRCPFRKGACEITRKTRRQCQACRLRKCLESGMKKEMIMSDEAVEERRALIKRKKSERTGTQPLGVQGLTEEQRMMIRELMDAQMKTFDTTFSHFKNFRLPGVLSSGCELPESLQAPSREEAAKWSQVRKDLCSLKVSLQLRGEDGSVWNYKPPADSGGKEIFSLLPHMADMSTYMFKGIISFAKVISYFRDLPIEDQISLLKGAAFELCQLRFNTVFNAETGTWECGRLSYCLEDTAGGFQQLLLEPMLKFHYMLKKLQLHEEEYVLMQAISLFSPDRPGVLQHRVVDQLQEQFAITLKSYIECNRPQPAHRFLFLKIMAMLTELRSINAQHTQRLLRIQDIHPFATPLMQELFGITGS
Chain of F508del-CFTR (P13569 other isoform, or with tags, fused parts or gaps del F508-F508): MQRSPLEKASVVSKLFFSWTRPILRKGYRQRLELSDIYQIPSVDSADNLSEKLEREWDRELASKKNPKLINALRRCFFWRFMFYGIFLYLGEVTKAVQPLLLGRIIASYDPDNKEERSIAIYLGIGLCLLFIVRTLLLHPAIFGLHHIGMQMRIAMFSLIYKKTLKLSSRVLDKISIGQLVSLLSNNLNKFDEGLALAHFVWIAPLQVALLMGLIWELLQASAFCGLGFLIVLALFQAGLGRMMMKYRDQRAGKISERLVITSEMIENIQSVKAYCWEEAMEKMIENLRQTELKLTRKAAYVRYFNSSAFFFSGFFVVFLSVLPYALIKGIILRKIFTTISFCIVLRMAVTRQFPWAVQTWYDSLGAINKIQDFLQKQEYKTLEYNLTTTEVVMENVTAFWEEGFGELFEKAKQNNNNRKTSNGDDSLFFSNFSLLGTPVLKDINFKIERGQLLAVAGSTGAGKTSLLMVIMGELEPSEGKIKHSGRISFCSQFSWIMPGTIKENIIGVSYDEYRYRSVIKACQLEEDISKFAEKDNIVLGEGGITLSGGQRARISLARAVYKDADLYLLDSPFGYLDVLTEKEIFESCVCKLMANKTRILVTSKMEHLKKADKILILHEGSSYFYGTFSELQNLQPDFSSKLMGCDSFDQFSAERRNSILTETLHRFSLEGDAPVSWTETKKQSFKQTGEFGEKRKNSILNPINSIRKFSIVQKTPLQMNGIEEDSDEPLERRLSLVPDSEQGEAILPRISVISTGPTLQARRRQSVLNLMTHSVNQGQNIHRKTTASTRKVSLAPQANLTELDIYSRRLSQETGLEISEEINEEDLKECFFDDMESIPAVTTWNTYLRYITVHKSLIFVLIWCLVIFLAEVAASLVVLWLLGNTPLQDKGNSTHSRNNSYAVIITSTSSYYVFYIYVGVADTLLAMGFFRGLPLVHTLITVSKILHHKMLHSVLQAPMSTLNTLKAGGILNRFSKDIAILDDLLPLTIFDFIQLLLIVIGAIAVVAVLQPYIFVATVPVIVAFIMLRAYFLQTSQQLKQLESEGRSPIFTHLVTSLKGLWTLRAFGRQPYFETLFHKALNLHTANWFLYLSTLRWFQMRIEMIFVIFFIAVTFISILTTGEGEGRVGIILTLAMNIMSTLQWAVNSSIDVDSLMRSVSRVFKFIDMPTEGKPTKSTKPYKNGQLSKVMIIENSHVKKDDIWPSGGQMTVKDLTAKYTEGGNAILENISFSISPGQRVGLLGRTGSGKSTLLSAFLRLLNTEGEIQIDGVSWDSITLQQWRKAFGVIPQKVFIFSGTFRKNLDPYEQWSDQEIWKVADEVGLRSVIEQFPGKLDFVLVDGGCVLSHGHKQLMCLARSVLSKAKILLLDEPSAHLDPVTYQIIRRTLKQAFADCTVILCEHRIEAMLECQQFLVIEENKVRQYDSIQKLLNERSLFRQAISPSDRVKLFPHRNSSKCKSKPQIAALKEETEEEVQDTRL

With `Cc1cccc(S(=O)(=O)NC(=O)c2ccc(-n3ccc(OCC4(C(F)(F)F)CC4)n3)nc2N2C[C@@H](C)CC2(C)C)c1` [Comp. 28, N-(m-Tolylsulfonyl)-6-[3-[[1-(trifluoromethyl)cyclopropyl]methoxy]pyrazol-1-yl]-2-[(4S)-2,2,4-trimethylpyrrolidin-1-yl]pyridine-3-carboxamide], the negative logarithm of the EC50 (pEC50) on F508del-CFTR (setting [1]) is above 7.00; on F508del-CFTR (setting [2]) it was 7.52. Also, the “PXR Max Induction (% of rifampicin)” value at human PXR is listed as 17 % of rifampicin.

As to `C[C@@H]1CN(c2nc(-n3ccc(OCC4C(C)(C)C4(C)C)n3)ccc2C(=O)NS(=O)(=O)c2ccc(O)cc2)C(C)(C)C1` [Comp. 33, N-(4-Hydroxyphenyl)sulfonyl-6-[3-[(2,2,3,3-tetramethylcyclopropyl)methoxy]pyrazol-1-yl]-2-[(4S)-2,2,4-trimethylpyrrolidin-1-yl]pyridine-3-carboxamide], the negative logarithm of the EC50 (pEC50) on F508del-CFTR (setting [1]) is above 7.00; at F508del-CFTR (setting [2]) it was 7.10. The “PXR Max Induction (% of rifampicin)” value at human PXR was 0 % of rifampicin.

As for `C[C@@H]1CN(c2nc(-n3ccc(OCC(C4CC4)C4CC4)n3)ccc2C(=O)NS(=O)(=O)c2ccccc2)C(C)(C)C1` [Comp. 41, N-(Benzenesulfonyl)-6-[3-(2,2-dicyclopropylethoxy)pyrazol-1-yl]-2-[(4S)-2,2,4-trimethylpyrrolidin-1-yl]pyridine-3-carboxamide], in “Rat IV and PO PK studies”, the bioavailability turned out to be 41%, the clearance worked out at 1.9 mL/min/kg and the AUC is 6400 ng·h/mL.

As to `C[C@@H]1CN(c2nc(-n3ccc(OCCC(C4CC4)C4CC4)n3)ccc2C(=O)NS(=O)(=O)c2ccccc2)C(C)(C)C1` [Comp. 42, N-(Benzenesulfonyl)-6-[3-(3,3-dicyclopropylpropoxy)pyrazol-1-yl]-2-[(4S)-2,2,4-trimethylpyrrolidin-1-yl]pyridine-3-carboxamide], the pEC50 on F508del-CFTR (setting [1]) is above 7.00. In addition, the pEC50 on F508del-CFTR (setting [2]) was 7.30. Besides, in the series “Rat IV and PO PK studies”, the bioavailability worked out at 51%, the clearance was 5.4 mL/min/kg and the area under the curve (AUC) amounted to 4400 ng·h/mL.

Turning to `C[C@@H]1CN(c2nc(-n3ccc(OCC(C)(C)C)n3)ccc2C(=O)NS(=O)(=O)c2ccc[nH]c2=O)C(C)(C)C1` [Comp. C, reference compound], on human PXR, the “PXR Max Induction (% of rifampicin)” value was 3 % of rifampicin.

For `C[C@@H]1CN(c2nc(-n3ccc(OCC4CCC4)n3)ccc2C(=O)NS(=O)(=O)c2cccnc2N)C(C)(C)C1` [Comp. E, reference compound], at human PXR, the “PXR Max Induction (% of rifampicin)” value is listed as 10 % of rifampicin.

Turning to `C[C@@H]1CN(c2nc(-n3ccc(OCCC4(C(F)(F)F)CC4)n3)ccc2C(=O)NS(=O)(=O)c2cccc(F)c2)C(C)(C)C1` [Compound 5, N-(3-Fluorophenyl)sulfonyl-6-[3-[2-[1-(trifluoromethyl)cyclopropyl]ethoxy]pyrazol-1-yl]-2-[(4S)-2,2,4-trimethylpyrrolidin-1-yl]pyridine-3-carboxamide], on F508del-CFTR (setting [1]), the pEC50 is above 7.00. In addition, the pEC50 on F508del-CFTR (setting [2]) is 7.30. In the series “Rat IV and PO PK studies”, the bioavailability turned out to be 50%, the clearance stood at 9.6 mL/min/kg and the AUC was determined as 2700 ng·h/mL.

As to `C[C@@H]1CN(c2nc(-n3ccc(OCC4(C(F)(F)F)CCC4)n3)ccc2C(=O)NS(=O)(=O)c2ccccc2)C(C)(C)C1` [Compound 10, N-(Benzenesulfonyl)-6-[3-[[1-(trifluoromethyl)cyclobutyl]methoxy]pyrazol-1-yl]-2-[(4S)-2,2,4-trimethylpyrrolidin-1-yl]pyridine-3-carboxamide], the pEC50 on F508del-CFTR (setting [1]) is above 7.00. Also, the pEC50 on F508del-CFTR (setting [2]) was 7.40. For the same compound, in the series “Rat IV and PO PK studies”, the bioavailability came to 41%, the clearance was found to be 11.2 mL/min/kg and the AUC was 2200 ng·h/mL.

With `C[C@@H]1CN(c2nc(-n3ccc(OCC4(C(F)(F)F)CC4)n3)ccc2C(=O)NS(=N)(=O)c2ccccc2)C(C)(C)C1` (stereo partly drawn) [Compound 45, N-(amino(oxo)(phenyl)-λ^6-sulfaneylidene)-6-(3-((1-(trifluoromethyl)cyclopropyl)methoxy)-1H-pyrazol-1-yl)-2-((S)-2,2,4-trimethylpyrrolidin-1-yl)nicotinamide], the pEC50 on F508del-CFTR (setting [1]) is 6.00 to 7.00.

On to `C[C@@H]1CN(c2nc(-n3ccc(OC4CC4)n3)ccc2C(=O)NS(=O)(=O)c2ccccc2)C(C)(C)C1` [Compound 48, N-(Benzenesulfonyl)-6-[3-(cyclopropoxy)pyrazol-1-yl]-2-[(4S)-2,2,4-trimethylpyrrolidin-1-yl]pyridine-3-carboxamide], for which the pEC50 on F508del-CFTR (setting [1]) was below 6.00.

On to `C[C@@H]1CN(c2nc(-n3ccc(OCC4(C(F)(F)F)CC4)n3)ccc2C(=O)NS(=O)(=O)c2ccc(F)cc2)C(C)(C)C1` [Compound 52, N-(4-fluorophenyl)sulfonyl-6-[3-[[1-(trifluoromethyl)cyclopropyl]methoxy]pyrazol-1-yl]-2-[(4S)-2,2,4-trimethylpyrrolidin-1-yl]pyridine-3-carboxamide], for which the pEC50 on F508del-CFTR (setting [1]) was above 7.00.

For the compound `COc1ccc(S(=O)(=O)NC(=O)c2ccc(-n3ccc(OCC4(C(F)(F)F)CC4)n3)nc2N2C[C@@H](C)CC2(C)C)cc1` [Compound 54, N-(4-methoxyphenyl)sulfonyl-6-[3-[[l-(trifluoromethyl)cyclopropyl]methoxy]pyrazol-1-yl]-2-[(4S)-2,2,4-trimethylpyrrolidin-1-yl]pyridine-3-carboxamide], the pEC50 at F508del-CFTR (setting [1]) was above 7.00.

For `CC1(C)CN(c2nc(-n3ccc(OCC4(C(F)(F)F)CC4)n3)ccc2C(=O)NS(=O)(=O)c2ccccc2)C(C)(C)C1` [Compound 56, N-(Benzenesulfonyl)-2-(2,2,4,4-tetramethylpyrrolidin-1-yl)-6-[3-[[1-(trifluoromethyl)cyclopropyl]methoxy]pyrazol-1-yl]pyridine-3-carboxamide], the pEC50 at F508del-CFTR (setting [1]) is 6.00 to 7.00.

Take `C[C@@H]1CN(c2nc(-n3ccc(OCC4(C(F)(F)F)CCC4)n3)ccc2C(=O)NS(=O)(=O)c2cccc(F)c2)C(C)(C)C1` [Compound 59, N-(3-Fluorophenyl)sulfonyl-6-[3-[[1-(trifluoromethyl)cyclobutyl]methoxy]pyrazol-1-yl]-2-[(4S)-2,2,4-trimethylpyrrolidin-1-yl]pyridine-3-carboxamide]: on F508del-CFTR (setting [1]), the pEC50 is above 7.00.

Take `C[C@@H]1CN(c2nc(-n3ccc(OCC4CC45CC5)n3)ccc2C(=O)NS(=O)(=O)c2ccccc2)C(C)(C)C1` (stereo partly drawn) [Compound 60, N-(Benzenesulfonyl)-6-[3-(spiro[2.2]pentan-2-ylmethoxy)pyrazol-1-yl]-2-[(4S)-2,2,4-trimethylpyrrolidin-1-yl]pyridine-3-carboxamide]: the pEC50 on F508del-CFTR (setting [1]) is 6.00 to 7.00.

For the compound `C[C@H]1CC(C)(C)N2c3nc(-n4ccc(OCCC5(C(F)(F)F)CC5)n4)ccc3C(=O)OC12` (stereo partly drawn) [Compound 62, (5S)-3,3,5-trimethyl-12-(3-(2-[1-(trifluoromethyl)cyclopropyl]ethoxy)-1H-pyrazol-1-yl)-7-oxa-2,13-diazatricyclo[7.4.0.02,6]trideca-1(13),9,11-trien-8-one], the pEC50 at F508del-CFTR (setting [1]) was below 6.00; at F508del-CFTR (Table 7, Compound 1 and metabolites, read-out: CFTRdF508 EC50), below 4.52.

As to `C[C@@H]1CN(c2nc(-n3ccc(OCC45CC(F)(C4)C5)n3)ccc2C(=O)NS(=O)(=O)c2ccccc2)C(C)(C)C1` [Compound 63, N-(Benzenesulfonyl)-6-[3-[(3-fluoro-1-bicyclo[1.1.1]pentanyl)methoxy]pyrazol-1-yl]-2-[(4S)-2,2,4-trimethylpyrrolidin-1-yl]pyridine-3-carboxamide], at F508del-CFTR (setting [1]), the pEC50 was 6.00 to 7.00.

In the case of `C[C@@H]1CN(c2nc(-n3ccc(O)n3)ccc2C(=O)NS(=O)(=O)c2ccccc2)C(C)(C)C1` [Compound 65, N-(benzenesulfonyl)-6-(3-hydroxypyrazol-1-yl)-2-[(4S)-2,2,4-trimethylpyrrolidin-1-yl]pyridine-3-carboxamide], on F508del-CFTR (setting [1]), the pEC50 is below 6.00.

The term pEC50 denotes the EC50 on a negative log10 scale, so that one unit is a factor of ten. What is called AUC is concentration integrated over time. Low values mean low exposure, high ones high exposure.
